Experimental data published in patent US9561232B2, “Low dose noribogaine for treating nicotine addiction and preventing relapse of nicotine use” (priority 2014, dated 2017).
Entries after “also recorded” stand apart in the source; their conditions may differ. Where two headings read alike, the source gives them in different places.

Columns and labels:
[1] = test system: nicotine dependent rats; test: Nicotine self-administration test; assay type: in vivo, Sprague-Dawley rats; conditions: for inactive lever press during nicotine self-administration: all treatments, repeated measure ANOVA, P>0.05
[2] = test system: habitual smoker; test: Low dose intranasal noribogaine on smoking craving; assay type: in vivo, human; conditions: nanogram amount absorbed intranasally, during a period of several hours
Text: A habitual smoker intranasally absorbed a nanogram amount of noribogaine hydrochloride. […] The patient was unaware during that period of any nicotine or smoking cravings.

[3] = Pupillometry (pupillary miosis) in healthy volunteers; assay type: in vivo, human
Procedure: Pupillary miosis was assessed by pupillometry.

[4] = Cold pressor test in healthy volunteers; assay type: in vivo, human; conditions: ANOVA after adjusting for baseline
Procedure: Analgesic effect was assessed based on duration of hand immersion in ice water and on visual analog scale (VAS) pain scores upon hand removal from the water bath.

[5] = test system: opioid-dependent participants; test: Efficacy in opioid-dependent participants: time to resumption of OST and COWS/OOWS/SOWS withdrawal scores; assay type: in vivo, human
Procedure: The efficacy of noribogaine in humans was evaluated in opioid-dependent participants in a randomized, placebo-controlled, double-blind trial. […] See U.S. application Ser. No. 14/214,157, filed Mar. 14, 2014 and Ser. No. 14/346,655, filed Mar. 21, 2014, which are incorporated herein by reference in their entireties.
Three cohorts of nine (9) subjects (6 administered noribogaine and 3 administered placebo in each cohort) were evaluated for tolerability, pharmacokinetics, and efficacy. Cohort 1 received a single dose of 60 mg noribogaine or placebo. Cohort 2 received a single dose of 120 mg noribogaine or placebo. Cohort 3 received a single dose of 180 mg noribogaine or placebo. […] Headaches were frequent in the placebo and 60 mg noribogaine treatment groups, but were attenuated in the 120 mg and 180 mg dose groups.
Patients were evaluated based on the Clinical Opiate Withdrawal Scale (COWS), Subjective Opiate Withdrawal Scale (SOWS), and Objective Opiate Withdrawal Scale (OOWS) scoring systems over the period of time between administration of noribogaine (or placebo) until resumption of OST. These scales are outlined in Guidelines for the Psychosocially Assisted Pharmacological Treatment of Opioid Dependence, World Health Organization, Geneva (2009), Annex 10, which is incorporated herein by reference in its entirety. The scales measure the intensity of withdrawal symptoms, based on clinical, subjective, and objective indicia.

[6] = QT interval evaluation in opioid-dependent participants; assay type: in vivo, human; conditions: 60, 120, 180 mg, first 24 hours post administration; correlated with serum concentration
Procedure: Patients' QT intervals were evaluated at regular time points throughout the study.

[7] = test system: zebrafish during nicotine withdrawal; assay type: in vivo
Procedure: A total of 60 adult wild type short-fin zebrafish (˜50:50 male:female ratio) were used in this study. Fish were housed in groups of 20-30 fish per 40-L tank. Tanks were filled with filtered water and maintained at 25° C. Illumination (1000-1100 lx) was provided by ceiling-mounted fluorescent lights on a 12-h cycle (on: 6.00 h, off: 18.00 h) according to the standards of zebrafish care. All fish used in this study were experimentally naïve and fed Tetramin Tropical Flakes (Tetra USA, Blacksburg, Va.) twice a day. Following behavioral testing, the animals were euthanized in 500 mg/L Tricaine (Sigma-Aldrich, St. Louis, Mo.) buffered to pH=7.0. Animal experimentation in this study fully adhered to national and institutional guidelines and regulations.
A 1 mg/L dose of noribogaine (DMX1) was chosen based on pilot experiments and literature reports on effective doses other similar compounds. […] A standard 20-min pre-treatment time was chosen based on experience with a wide range of other neuroactive compounds and the results of pilot studies. This exposure time was also sufficient for provoking physiological (e.g., cortisol and c-fos) responses of zebrafish to multiple drugs. Drug exposure in this study was performed by submerging individual zebrafish in a 1-L plastic beaker for 20 min prior to the testing. The solution was regularly changed after each exposure, to ensure that each fish is exposed to a consistent concentration of noribogaine. Control fish were exposed to noribogaine-free water for the same treatment time, as described above.
Behavioral testing was performed between 11:00 and 15:00 h using tanks with water adjusted to the holding room temperature (25° C.). The study used the novel tank test (NTT) protocol. NTT represents one of the most commonly used neurophenotyping tests for adult zebrafish. To avoid the test battery or handling effects, each assay was performed once, on a separate individual naïve fish each time. Prior to testing, fish were pre-exposed individually in a 1-L plastic beaker for 20 min to either drug-treated or drug-free water. During testing, zebrafish behavior was recorded by two trained observers blind to the treatments, who manually scored different behavioral endpoints (inter- and intra-rater reliability in all experiments>0.85) with subsequent automated analysis of generated traces by Ethovision XT8.5 software (Noldus IT, Wageningen, Netherlands). The NTT, used to assess zebrafish anxiety and locomotion, was a 1.5-L trapezoidal tank (15 cm height×28 cm top×23 cm bottom×7 cm width; Aquatic Habitats, Apopka, Fla.) maximally filled with water and divided into two equal virtual horizontal portions by a line marking the outside walls. Fish were individually pre-exposed to water (water control), chronic nicotine (1 mg/L), repeated withdrawal from chronic nicotine (WD), and repeated withdrawal plus noribogaine (1 mg/L) for 20 min and tested in the standard 5-min NTT.
Zebrafish behavior was recorded by trained observers, scoring the latency to reach the top half of the tank(s), time spent in top(s), number of transitions to top, as well as the number and duration(s) of freezing bouts. Freezing was defined as a total absence of movement, except for the gills and eyes, for >2 s. Trials were also recorded to a computer using a USB webcam (2.0-megapixel, Gigaware, UK) and subsequently analyzed by Ethovision XT8.5, assessing distance traveled (m), velocity (m/s), and meandering endpoints. During manual observation, videos were recorded in MPEG1 format with the maximum sample rate 30 fps for each trial by auto-focusing 2.0 MP USB webcams, placed 25 cm in front of the tanks, and attached to laptop computers. Recorded videos were analyzed with Ethovision XT8.5 software. All environments were calibrated for each arena and the calibration axes were placed to designate the origin (0,0) at the center of each tank. […]

[8] = Safety and tolerability of noribogaine in healthy humans
[9] = Pharmacokinetics in opioid-dependent patients (Phase IB study); conditions: 60, 120, 180 mg cohorts
[10] = Treatment emergent adverse events in opioid-dependent participants
[11] = Ascending single oral dose pharmacokinetics of noribogaine in healthy volunteers (plasma, urine, LCMSMS); conditions: for mean AUC/24 hr / mean AUC/24: fasting conditions, serum
[12] = nicotine withdrawal + 1 mg/L, 20 min immersion, 5-min NTT
[13] = nicotine withdrawal + 1 mg/L, NTT
[14] = nicotine withdrawal + 1 mg/L, vs control, chronic nicotine and nicotine withdrawal groups
[15] = noribogaine in plasma, across dose groups 3-60 mg

## c1cnc2cc3c(cc2n1)[C@@H]1CNC[C@H]3C1 [varenicline, Varenicline, reference compound]
[1]
  inactive lever press during nicotine self-administration: no significant main effect of treatment

## CC[C@@H]1C[C@H]2CC3c4[nH]c5ccc(O)cc5c4CCN(C2)C31.Cl [noribogaine hydrochloride]
[2]
  craving to smoke: any craving to smoke stopped

## CC[C@H]1CC2C[C@H]3c4[nH]c5ccc(O)cc5c4CCN(C2)C13 [Noribogaine]
[3]; ANOVA after adjusting for baseline, 3-60 mg
  pupil diameter, each dose group compared with placebo: no statistically significant differences
[3]; healthy volunteers, single oral 3-60 mg
  pupillary constriction: no evidence of pupillary constriction
[4]
  VAS pain scores, each dose group compared with placebo: no statistically significant differences
  duration of hand immersion, each dose group compared with placebo: no statistically significant differences
[5]; 120 mg
  withdrawal symptoms (COWS, OOWS, SOWS), first six hours following dosing: generally experienced fewer withdrawal symptoms than the other patients
[5]; 60, 120, 180 mg, first six hours following dosing
  withdrawal symptoms (COWS, OOWS, SOWS), noribogaine versus placebo: Patients administered placebo generally experienced more withdrawal symptoms than patients who were administered noribogaine
[5]; single 180 mg dose
  average time to resumption of opioids (OST): still longer than untreated patients
[6]
  QT interval prolongation (ΔQTcl): dose-dependent increase in QT interval prolongation
[1]; 12.5 mg/kg orally 2 hours prior to test, P<0.10 vs vehicle
  nicotine infusion: A trend of depression of nicotine infusions
[1]; 25 mg/kg orally 2 hours prior to test, P<0.001 vs vehicle
  nicotine infusion: significantly depressed nicotine infusion
[1]; 50 mg/kg orally 2 hours prior to test, P<0.001 vs vehicle
  nicotine infusion: significantly depressed nicotine infusion
[1]
  inactive lever press during nicotine self-administration: no significant main effect of treatment
[7]; 1 mg/L
  anxiolytic-like effects (manual NTT endpoints): statistically significant anxiolytic-like effects
[7]; 1 mg/L, NTT, unaltered turn angle
  circling behavior: did not evoke circling behavior
[7]; 1 mg/L, acute
  Anxiogenic-like and locomotor effects of repeated nicotine withdrawal: fully reversed
[7]; 1 mg/L, computer-generated NTT endpoints
  motor activity (distance traveled and velocity measures): unaltered motor activity
[7]; 1 mg/L, dose did not promote locomotor effects
  efficacy in pilot experiment: sub-maximal efficacy
[7]; [12]
  latency to top: statistically significant decrease
  transitions to top: statistically significant increase
  transitions to upper half of tank per minute (habituation): reached values equivalent to the control group at 5 minutes
[7]; [13]
  Average velocity: corrected by noribogaine treatment
  Freezing bouts' frequency and duration: reversed that effect in nicotine withdrawal fish and re-established levels to that of the control fish group
  Total distance traveled (anxiety-like response of withdrawal group): corrected by treatment with noribogaine
  absolute change in direction (rotation angle): no difference observed
  absolute change in direction of movement per distance moved (FIG. 12, panel G), reduced in withdrawal group: corrected by treatment with noribogaine
  freezing bouts frequency: re-established the high bouts due to nicotine withdrawal toward control levels
  high-mobility number of events: increase in high-mobility number of events
  increase of hi-mobility duration and frequency (factor): ~2
  mobility and immobility endpoints (durations, frequency): reestablished mobility (mobile and immobile) durations and frequency in nicotine treated fish to control values
  relative change in direction; absolute change in direction of movement per distance moved (FIG. 12, panels E and F): no change was seen
[7]; nicotine withdrawal + 1 mg/L, NTT, listed as noribogaine
  mobility and immobility endpoints (durations, frequency): control-equivalent values for mobility and immobility endpoints
[7]; nicotine withdrawal + 1 mg/L, over chronic nicotine and nicotine withdrawal groups
  turning rotation rate: slight increase in turning rotation rate
[7]; [14]
  average entry duration: increased average entry duration
  time spent in top: Statistically significant increases in the duration of time spent in the top(s) portion of the tank
[8]; 3 mg dose group
  number of adverse events reported: five adverse events were reported by two subjects
[8]; 10 mg dose group
  number of adverse events reported: one adverse event was reported by single subjects
[8]; 30 mg dose group
  number of adverse events reported: one adverse event was reported by single subjects
[8]; all dose groups, all resolved prior to study completion
  intensity of adverse events: mild-moderate intensity
[8]; healthy volunteers, 3 mg dose
  Adverse events: Mild: Dizziness; also recorded: Epistaxis; also recorded: Headache; also recorded: Back pain
  Adverse events: Moderate: Headache
[8]; healthy volunteers, 10 mg dose
  Adverse events: Mild: Headache
[8]; healthy volunteers, 30 mg dose
  Adverse events: Mild: Headache
[8]; healthy volunteers, 3-60 mg, at any time
  QTcF values: ≤ 500 ms
[8]; one subject, 10 mg, single increase at 24 hours post-dosing
  increase in QTcF: > 60 ms
[9]
  dose dependence of maximum serum concentration (Cmax): increased in a dose-dependent manner
[10]; 60 mg treatment group
  Headaches: frequent
[10]; 120 mg and 180 mg dose groups
  Headaches: attenuated
[10]; opioid-dependent participants, single 60, 120 or 180 mg
  adverse effects observed: Few adverse effects
[10]; treatment emergent AE, 60 mg, N = 6
  Dry Mouth: 0
[11]; healthy volunteers, single oral 30 mg noribogaine, fasted, plasma, mean (SD), n = 6, listed as noribogaine free base
  Tmax: 1.75 h
[11]; [15]
  Mean half-life estimates: 28 to 50 h
  time of peak concentrations after oral dosing: 2 to 3 h
[11]; single dose of 3 mg noribogaine free base
  mean AUC/24 hr: 3.1 ng/mL
[11]; single dose of 10 mg noribogaine free base
  mean AUC/24 hr: 10.6 ng/mL
[11]; single dose of 30 mg noribogaine free base
  mean AUC/24: 29.2 ng/mL
[11]; single dose of 60 mg noribogaine free base
  mean AUC/24: 61 ng/mL
[11]; single oral 3-60 mg
  dose dependence of Cmax and AUC: increased linearly with dose

## CC[C@H]1C[C@@H]2C[C@H]3c4[nH]c5ccc(OC6OC(C(=O)O)C(O)C(O)C6O)cc5c4CCN(C2)[C@@H]13 (some centres unmarked) [Noribogaine glucuronide, noribogaine glucuronide]
[11]; 30 mg and 60 mg noribogaine dose groups
  time by which detected in plasma of all subjects: ≤ 0.75 h
[11]; both dose groups (30 mg, 60 mg)
  proportion of Cmax and AUC relative to noribogaine: 3-4%
[11]; noribogaine glucuronide in plasma, 30 mg and 60 mg dose groups
  time of peak concentrations after noribogaine dosing: 3 to 4 h
